This is an account of results in publication PMC3231940, “Disposition, metabolism and mass balance of [^14C]apremilast following oral administration” (Xenobiotica; the Fate of Foreign Compounds in Biological …, 2011).

Data set [1] in a line: Apremilast in plasma by chiral LC/MS/MS, non-compartmental PK. The format is in vivo, human. Here is the method: Urine was collected pre-dose, 0-4, 4-8, 8-12, 12-24 and every 24 h thereafter up to 216h (9 days) following dose administration and was stabilized with one volume of pH 1.5 Sorensen's citrate buffer (25-mM sodium citrate buffer adjusted to pH 1.5). Individual faecal samples were collected pre-dose and for up to 9 days following dose administration, and homogenized using approximately three volumes by weight of pH 1.5 Sorensen's citrate buffer. Blood (two 5-mL samples for plasma radioactivity counting, a 3-mL sample for whole blood radioactivity counting, a 2-mL sample for apremilast analysis and a 10-mL sample for metabolite profiling) was collected into heparinized tubes at pre-dose, 0.5, 1, 1.5, 2, 2.5, 3, 4, 6, 8, 12, 16, 24, 36, 48, 72, 96, 120, 144 and 168 h following dose administration. Blood samples collected for radioactivity counting were stored at or below -20°C until analysed. Plasma was harvested by centrifugation from all other blood samples. The plasma samples for apremilast analysis and metabolite profiling were mixed with an equal volume of pH 1.5 Sorensen's citrate buffer containing 20-μM amastatin. All urine, faecal homogenates and plasma samples were stored at or below -20°C until analysed.
Plasma concentrations of apremilast were determined using a Chiral liquid chromatography with tandem mass spectrometry (LC/MS/MS) assay validated for concentrations between 1.00 and 1000ng/mL, with quality control (QC) samples prepared at 3.00, 50.0 and 750 ng/mL. Apremilast and (3S-cis)-(+)-tetrahydro-3,7a-diphenylpyrrolo[2, 1-b] oxazol-5(6H)-one (internal standard; IS) were extracted from 50 μL of plasma (stabilized with 50-μL Sorenson's citrate buffer) using liquid-liquid extraction with methyl tertiary butyl ether. The aqueous layer was frozen and the solvent layer was transferred to a new tube. The solvent was evaporated, the samples were reconstituted and injected for LC/MS/MS analysis using a Chiral AGP (150×4.0mm, 5 μm; Chrom Tech, Inc., Apple Valley, MN) analytical column. Positive ions were measured in the multiple reaction monitoring (MRM) mode using a Sciex API-4000 tandem mass spectrometer equipped with a Turbo IonSpray source with precursor→product ion pairs of 461.0→177.9 for apremilast and 280.1→160.3 for IS. For the QC samples, the accuracy ranged from 87.5% to 106.7%.
Pharmacokinetic data were generated by non-compartmental analysis of plasma or whole blood versus time profiles using WinNonlin (version 4.1, Enterprise Edition). For individual subjects, the peak concentration (Cmax), time to Cmax (Tmax), area under the concentration versus time curve from time zero to the last quantifiable concentration (AUC0-t), area under the concentration versus time curve from time zero to infinity (AUC0-∞ and the apparent terminal elimination half-life (t½) were determined. AUC0-t) and AUC0-∞ were calculated using the linear trapezoidal rule. AUC0-∞ was calculated as the sum of […], where Clast, is the last observed quantifiable concentration.

In data set [2] the test system is TNF-α production by human peripheral blood mononuclear cells. The experiment in a line: TNF-α production assay in LPS-stimulated PBMC. The format is cell-based. Conditions: LPS 1 ng/mL, 16-18 h, ELISA. Here is the method:
PDE4 enzyme was isolated from U937 human monocytic cells and used for testing inhibition in a cAMP hydrolysis assay as previously described ([Schafer et al. 2010]). For the TNF-α production assay, human peripheral blood mono-nuclear cells (PBMC) were isolated from buffy coat of normal donor blood units (Blood Center of New Jersey, East Orange, NJ) by density centrifugation over Ficoll Hypaque (Pharmacia, Piscataway, NJ). Cells were cultured in RPMI 1640 (Life Technologies, Grand Island, NY) supplemented with 5% AB^+ human serum (Gemini Bio-products, Woodland, CA), 2-mM L-glutamine, 100-U/mL penicillin and 100-μg/mL streptomycin (Life Technologies). PBMC (2×10^5 cells) were plated in 96-well flat-bottom Costar tissue culture plates (Corning, NY) in duplicate. Cells were stimulated with lipopolysaccharides (LPS) (from Salmonella abortus equi; Sigma cat.no. L-1887, St.Louis, MO) at a final concentration of 1 ng/mL in the absence or presence of compounds. The compounds were dissolved in DMSO (Sigma) and subsequent dilutions were done in culture medium immediately before use. The compounds were added to cells 1 h before LPS stimulation. The cells were incubated for 16-18 h at 37°C in 5% CO2, and super-natants were then collected, diluted with culture medium and assayed for TNF-α levels by enzyme-linked immunosorbent assay (ThermoFisher, Rockford, IL). Fifty percent inhibitory concentrations (IC50) for the PDE4 enzymatic and TNF-α assay were calculated by non-linear regression analysis using Prism 5.1 (GraphPad Software). Regression curves were sigmoidal dose response curves with maximum and minimum constrained to 100% and 0%, respectively.

The next data set relates to CYP3A4. The arrangement: method as in Wu et al. 2006. The note with it: co-administration with ketoconazole, healthy subjects; ref Wu et al. 2006; cited from earlier work.

Like-named read-outs stand apart in the source and are kept apart here.

On to `CCOc1cc([C@@H](CS(C)(=O)=O)N2C(=O)c3cccc(NC(C)=O)c3C2=O)ccc1OC` [Apremilast, (+)-N-[2-[(lS)-1-(3-ethoxy-4-methoxyphenyl)-2-(methylsulfonyl)ethyl]-1,3-dioxo-2,3-dihydro-lH-isoindol-4-yl]acetamide], for which the “Plasma t½” value in data set [1] (chiral LC/MS/MS assay, single oral 20-mg dose, mean ± SD) amounted to 6.8 ± 2.6 h. Also, the half-life in data set [1] (male, human, plasma, po, 20 mg, chiral LC/MS/MS assay, single oral 20-mg dose, mean ± SD, read-out: Plasma t½ (converted)) is around 7 h. In addition, in data set [1] (male, human, plasma, po, 20 mg, single oral 20-mg dose, read-out: AUC determined via LC/MS), the AUC amounted to 1910 ± 339 ng·h/mL. The AUC in data set [1] (male, human, plasma, po, 20 mg, single oral dose 20 mg, 100 uCi, read-out: Mean AUC0 in plasma) came to 1970 ng·h/mL. Besides, in data set [1] (male, human, plasma, chiral LC/MS/MS assay, single oral 20-mg dose, mean ± SD, read-out: Plasma AUC0-t), the AUC(0-t) came out at 1910 ± 339 ng·h/mL. In addition, in data set [1] (male, human, plasma, chiral LC/MS/MS assay, single oral 20-mg dose, mean ± SD, read-out: Plasma AUC0-∞), the AUC(0-inf) worked out at 1970 ± 343 ng·h/mL. The Tmax in data set [1] (male, human, plasma, chiral LC/MS/MS assay, single oral 20-mg dose, median and range) is below 2 h. In data set [1] (male, human, plasma, single oral dose 20 mg, 100 uCi), the Cmax was determined as 333 ng/mL. In data set [2], the IC50 turned out to be 77 nM. Besides, in the data set on CYP3A4, the “Increase in apremilast AUC” value is given as 36% and the “Increase in mean apremilast Cmax” value is listed as 5%.
